Reference: patent US9598677B2, “Use of human biliverdin reductase and fragments thereof for the treatment of protein kinase C-delta and ERK related conditions” (University of Rochester, priority 2009, dated 2017)
Blank lines part the entries; values can stand above or below the compound they belong to. Ends that are not written are not given here. * marks the point of attachment. Myristoyl = CCCCCCCCCCCCCC(=O)*

Key:
recombinant human PKC-δ = test: PKC-δ kinase assay in vitro (p81 filter / autoradiography); assay type: biochemical; settings: for phosphorylation of variant peptides as PKC-δ substrates: FIG. 4C; for phosphate incorporated into hBVR-derived peptides by PKC-δ: 10 μM peptide, 30 min at 30° C., FIG. 6C
Description: Measurement of PKC-δ activity: In vitro kinase activity assays were performed with active recombinant human PKC-δ kinase (as a GST fusion protein). PKC-δ assay in vitro was performed using 5 ng purified enzyme in a 50 μl assay containing 50 mM HEPES pH 7.4, 10 mM MgCl2, 0.2 mM DTT, sonicated lipid activators (0.5 μg phosphatidylserine and 0.05 μg diacylglycerol) or lipid activators plus PMA (as indicated in appropriate experiments) and PKC-δ substrates. The reaction was started by the addition of 50 μM ATP labeled with 5 μCi [γ-^32P]-ATP. Incubation was performed for 15 min at 30° C., unless otherwise stated. The reaction was terminated on ice, either by the addition of Laemmli buffer followed by SDS-PAGE, transferred to PVDF membrane, and autoradiography, or by the addition of 1 volume 10% phosphoric acid for p81 transfer as described below. For autophosphorylation of PKC-δ 20 μM ATP was used to start the 40-min reaction.
When hBVR or its mutants were tested for their effect on PKC-δ activity, they were pre-incubated for 5 min at room temperature with the PKC prior to substrate addition. The hBVR-derived peptides were used at concentrations indicated in appropriate figures.
When hBVR or its mutants were assayed as the sole substrates for PKC, the incubation conditions were as described above and the incubation was for 40 min at 30° C. unless specified otherwise. The reaction was terminated by the addition of Laemmli buffer, and the reaction products were detected by SDS-PAGE, transfer to PVDF membrane, and autoradiography.
Measurement of PKC-δ activity: PKC-δ assay in vitro was performed using 0.1 ng/μl purified recombinant human PKC-δ kinase with reaction conditions specified by the manufacturer. Effector molecules such as hBVR or peptides were added 5 min prior to substrate. The reaction was started by the addition of [γ-^32P]-ATP (Lerner-Marmarosh et al., “Human Biliverdin Reductase: A Member of the Insulin Receptor Substrate Family with Serine/Threonine/Tyrosine Kinase Activity,” Proc. Natl. Acad. Sci. U.S.A. 102(20):7109-7114 (2005), which is hereby incorporated by reference in its entirety). Reaction products were detected either by gel electrophoresis and autoradiography or by the p81 filter assay. PKC-δ activity on agarose beads was also measured. Cell lysates were immunoprecipitated with anti-PKC-δ antibody followed by protein A/G agarose. The immunoprecipitates were used in kinase reactions containing 50 μM PKC-δ specific peptide substrate as above; incorporation of ^32P was measured by p81 method.

PKC-δ [1] = target: T1, PKC-δ (Homo sapiens, UniProt Q05655); test: PMA-induced PKC-δ membrane translocation, confocal microscopy; assay type: cell-based; parameters: inserting the open reading frame of PKC-δ into the plasmid pDsRed2-C1; expressed in transfected cells; host or cells: 293A; settings: 10 μM myristoylated peptide, PMA 15 min, FIG. 5E
T1 sequence (Q05655 whole entry, the tested form may be a part): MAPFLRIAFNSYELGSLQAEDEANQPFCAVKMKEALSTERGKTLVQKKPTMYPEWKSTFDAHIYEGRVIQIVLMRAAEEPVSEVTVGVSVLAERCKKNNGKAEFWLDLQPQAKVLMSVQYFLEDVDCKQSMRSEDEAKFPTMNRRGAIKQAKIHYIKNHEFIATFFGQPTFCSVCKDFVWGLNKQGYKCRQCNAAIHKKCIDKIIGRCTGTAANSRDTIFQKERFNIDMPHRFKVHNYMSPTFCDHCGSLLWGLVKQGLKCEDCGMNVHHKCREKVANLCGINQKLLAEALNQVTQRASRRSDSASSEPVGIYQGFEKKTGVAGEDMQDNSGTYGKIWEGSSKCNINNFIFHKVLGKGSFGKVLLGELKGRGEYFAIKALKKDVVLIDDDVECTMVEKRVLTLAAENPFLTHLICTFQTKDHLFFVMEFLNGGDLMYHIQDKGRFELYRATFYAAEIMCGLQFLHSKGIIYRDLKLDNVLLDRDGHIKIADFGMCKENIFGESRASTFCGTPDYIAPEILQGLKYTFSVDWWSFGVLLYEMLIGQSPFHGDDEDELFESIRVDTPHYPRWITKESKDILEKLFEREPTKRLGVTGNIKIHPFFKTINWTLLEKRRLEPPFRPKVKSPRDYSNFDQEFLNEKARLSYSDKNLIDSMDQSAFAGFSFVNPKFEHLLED
Description: Confocal microscopy: Experimental protocols were based on those described by Edwards et al., “Carboxyl-Terminal Phosphorylation Regulates the Function and Subcellular Localization of Protein Kinase C betall,” J. Biol. Chem. 274:6461-6468 (1999), which is hereby incorporated by reference in its entirety. 293A cells were grown in a chamber slide system (Nalge-Nunc International Corp., Naperville, Ill.). Cells were transfected with pEGFP-hBVR and/or the plasmid expressing Ds2-Red-PKC-δ fusion protein. After a 24 h starvation period, cells were fixed for 10 min in 4% Para-formaldehyde in PBS and permeabilized with 1% Triton X-100 in PBS. The cells were mounted with Vectashield (Vector Laboratories, Inc. Burlingame, Calif.), containing DAPI to visualize the nuclei. Non-transfected cells were permeabilized as above, treated with 1:150 dilution of polyclonal anti-PKC-δ antibodies, washed, blocked, and then treated with polyclonal anti-hBVR antibodies. The PBS-washed cells were then treated with Rhodamine-red-conjugated donkey anti-rabbit IgG antibodies (Jackson ImmunoResearch, West Grove, Pa.) for 30 min, followed by mounting. A Leica TCS SP (model DMRE) confocal microscope was used (Maines et al., “Human Biliverdin Reductase: A Previously Unknown Activator of Protein Kinase C-βII,” J. Biol. Chem. 282:8110-8122 (2007), which is hereby incorporated by reference in its entirety).

hBVR and PKC-δ = target: T2, hBVR and PKC-δ (Homo sapiens, UniProt Q05655); test: Co-immunoprecipitation of hBVR and PKC-δ (anti-HA); assay type: cell-based; settings: myristoylated peptide 2 h, then IGF-1, FIG. 9B
T2 construct: The human PKC-δ open reading frame was amplified by PCR from a human brain cDNA library; expressed in transfected cells; host or cells: HEK293A
T2 sequence (Q05655 whole entry): as the sequence (Q05655 whole entry, the tested form may be a part) above
Description: (§1) Immunoprecipitation was performed on cell lysates prepared as described previously (Lerner-Marmarosh et al., “Regulation of TNF-alpha-Activated PKC-zeta Signaling By the Human Biliverdin Reductase: Identification of Activating and Inhibitory Domains of the Reductase,” FASEB J. 21:3949-3962 (2007), which is hereby incorporated by reference in its entirety). Immunoprecipitates were separated by SDS PAGE, and the proteins blotted to nitrocellulose membrane. The antibodies used for precipitation and for probing the membranes are as described in the specific figure legends.
(§2) Cell Culture, infection, transfection, and co-immunoprecipitation: HEK293A cells were grown and transfected with pcDNA3-HA-hBVR or pcDNA3-PKC-δ plasmids using conditions described elsewhere (Kravets et al., “Biliverdin Reductase, a Novel Regulator for Induction of Activating Transcription Factor-2 and Heme Oxygenase-1,” J. Biol. Chem. 279(19):19916-19923 (2004); Maines et al., “Human Biliverdin Reductase, a Previously Unknown Activator of Protein Kinase C BetaII,” J. Biol. Chem. 282(11):8110-8122 (2007), which are hereby incorporated by reference in their entirety), and overexpression was confirmed by western blotting. […]

PKC-δ and ERK1/2 = target: T3, PKC-δ and ERK1/2 (Homo sapiens, UniProt P27361+P28482+Q05655); test: Co-immunoprecipitation of PKC-δ and ERK1/2 (anti-ERK1/2); assay type: cell-based; settings: myristoylated peptide, IGF-1, FIG. 9D
T3 construct: The human PKC-δ open reading frame was amplified by PCR from a human brain cDNA library; expressed in transfected cells; host or cells: HEK293A (PKC-δ transfected; ERK1/2 endogenous)
T3 sequence (Q05655 whole entry): as the sequence (Q05655 whole entry, the tested form may be a part) above
T3 sequence (P27361 2-379 limits assumed): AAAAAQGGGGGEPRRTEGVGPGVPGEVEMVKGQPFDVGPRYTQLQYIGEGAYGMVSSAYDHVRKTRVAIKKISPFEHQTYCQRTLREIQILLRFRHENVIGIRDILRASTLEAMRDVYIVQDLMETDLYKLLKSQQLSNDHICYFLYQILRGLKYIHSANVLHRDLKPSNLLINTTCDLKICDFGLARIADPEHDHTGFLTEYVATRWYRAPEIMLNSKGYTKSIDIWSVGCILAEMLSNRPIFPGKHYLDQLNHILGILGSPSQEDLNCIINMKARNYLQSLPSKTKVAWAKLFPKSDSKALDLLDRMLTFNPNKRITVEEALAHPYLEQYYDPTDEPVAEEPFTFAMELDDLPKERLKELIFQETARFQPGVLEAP
T3 sequence (P28482 2-360 limits assumed): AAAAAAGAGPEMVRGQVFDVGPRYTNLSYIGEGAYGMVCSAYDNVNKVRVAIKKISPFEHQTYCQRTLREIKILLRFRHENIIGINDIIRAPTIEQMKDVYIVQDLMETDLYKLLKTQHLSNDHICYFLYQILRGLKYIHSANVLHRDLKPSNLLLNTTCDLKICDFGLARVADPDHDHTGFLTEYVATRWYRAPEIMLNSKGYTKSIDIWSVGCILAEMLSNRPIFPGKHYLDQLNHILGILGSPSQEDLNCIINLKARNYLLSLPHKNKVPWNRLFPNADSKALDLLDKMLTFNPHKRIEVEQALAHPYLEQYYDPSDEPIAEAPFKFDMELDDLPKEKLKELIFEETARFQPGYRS
Description: as §1, §2

PKC-δ [2] = target: T1, PKC-δ; test: PKC-δ activity assay in situ in 293A cells; assay type: cell-based; parameters: The human PKC-δ open reading frame was also cloned in the same vectors; expressed in transfected cells; host or cells: HEK 293A; settings: 20 μM, added 30 min prior to treatment, FIG. 3C
Description: The PKC-δ activity assay in situ was performed by a modification of procedures detailed by Williams and Schrier (Williams et al., Glucose-Induced Protein Kinase C Activity Regulates Arachidonic Acid Release and Eicosanoid Production by Cultured Glomerular Mesangial Cells,” J. Clin. Invest. 92:2889-2896 (1993), which is hereby incorporated by reference in its entirety). Cells were seeded into 48-well plates and transfected with 0.1 μg/well pcDNA3-hBVR. After 24 h, the medium was replaced with a starvation medium (0.1% serum) and incubation continued for another 24 h to synchronize cells. In some wells, PKC inhibitor Rottlerin (20 μM) was added 30 min before addition of PMA (100 nM) for 15 min. In some wells, hBVR-derived peptides were introduced to cells in their myristoylated form. Cells were washed with medium and incubated for 10 min at 30° C. in 50 μl of kinase assay buffer (137 mM NaCl, 5.4 mM KCl, 10 mM MgCl2, 0.3 mM Na2HPO4, 0.4 mM KH2PO4, 25 mM β-glycerophosphate, 5.5 mM D-glucose, 5 mM EGTA, 1 mM CaCl2, 20 mM HEPES (pH 7.2), 50 μg/ml digitonin, 120 μg/ml of PKC-δ specific substrate (ARRKRKGSFFGG; SEQ ID NO: 52) and 100 μM ATP labeled with 10 μCi/ml [γ-^32P]-ATP). The reaction was stopped with the addition of 25 μl of ice-cold 30% (wt/vol) TCA. The TCA-soluble fraction samples were transferred to p81 phospho-cellulose filters. […]

phosphorylation of variant peptides as PKC-δ substrates (recombinant human PKC-δ): markedly decreased phosphorylation
Compound: GLKRNRYLAFHFKSGSL (BVR peptide) [alanine-mutant peptide (hBVR aa222-238), longer alanine-mutant peptide that includes two additional serines]

inhibition of phosphorylation of the commercial substrate (recombinant human PKC-δ; 50 μM substrate/10 μM inhibitor, FIG. 5A): clearly differed | PKC-δ translocation to the cell membrane upon PMA (PKC-δ [1]): did not significantly affect
Compound: SFHFKSGSL (Myristoyl-SFHFKSGSL) [hBVR-based peptide aa230-238]

Compound: hBVR aa18-23: hBVR-derived peptide containing S21 in consensus PKC phosphorylation motif (RAGSVR; UniProt P53004 18-23, looked up, fragment)
phosphate incorporated into hBVR-derived peptides by PKC-δ (recombinant human PKC-δ): several fold increase

phosphorylation of variant peptides as PKC-δ substrates (recombinant human PKC-δ): not a substrate
Compound: GLAANAYLSFHFK (BVR peptide) [second variant of the aa222-234 peptide, upstream lysine and arginine residues replaced by alanine]

association between hBVR and PKC-δ, effect of peptide (hBVR and PKC-δ): completely blocked | association of PKC-δ and ERK1/2, effect of peptide (PKC-δ and ERK1/2): inhibitory
Compound: FGFPAFSG (BVR peptide) [hBVR-derived hydrophobic (C-box) peptide]

Compound: aa290-296: hBVR-derived peptide containing S294 in consensus PKC phosphorylation motif (KYCCSRK; UniProt P53004 290-296, looked up, fragment)
phosphate incorporated into hBVR-derived peptides by PKC-δ (recombinant human PKC-δ): several fold increase

phosphorylation of variant peptides as PKC-δ substrates (recombinant human PKC-δ): not a substrate
Compound: GLKRNRYLAFHFK (BVR peptide) [aa222-234 peptide with target serine replaced by alanine]

association between hBVR and PKC-δ, effect of peptide (hBVR and PKC-δ): slight decrease in binding | association of PKC-δ and ERK1/2, effect of peptide (PKC-δ and ERK1/2): failed to block
Compound: KKRILHCLGLA (BVR peptide) [hBVR-derived D-box peptide]

Compound: CC(=O)c1c(O)c(C)c(O)c(Cc2c(O)c3c(c(C(=O)/C=C/c4ccccc4)c2O)OC(C)(C)C=C3)c1O [Rottlerin, reference compound]
PKC-δ activation by PMA and hBVR in cells overexpressing the kinase (PKC-δ [2]): significant reduction
